According to US10781203B2, “Nontoxic compounds for the treatment and prevention of herpesvirus infections” (The Penn State Research Foundation, priority 2016, dated 2020):
One block for each compound: values may come before it.

Legend:
[1] = system: cells; assay: Cell viability after extended treatment (trypan blue, bright field); format: cell-based; settings: after 96 hours of treatment
Text: FIG. 3A is a growth curve analysis of HCMV (MOI=3) in untreated (WT), vehicle treated (DMSO) or Retro94-treated cells. Samples were harvested at 24, 48, 72, 96, 120 and 144 hpi. […] Nuclei labeled with DAPI (blue). Scale bars: 10 μm. FIG. 3C is a growth curve analysis of HCMV (MOI=0.05) in DMSO control (DMSO) or Retro94-treated cells. Samples were harvested at 3, 6, 9, 12 and 15 dpi. Asterisks indicate change of media with fresh Retro94. […] Bright field images of cell monolayers at 4 days post treatment are shown below graph. Brefeldin A was included as a positive control for cell death. Values in FIGS. 3A and 3C are from one representative experiment.
Normal human dermal fibroblasts, HDFs (Cell Applications Inc. 106-05N), and normal human lung fibroblasts, MRC-5 cells (ATCC CCL-171) were maintained in Dulbecco's modified Eagle's medium (DMEM) (Lonza). Human retinal pigmented epithelial cells (ARPE-19), maintained in DMEM/Ham's F12 (1:1 mix) (Lonza), human embryonic lung fibroblasts (HEL) and mouse embryonic fibroblasts (NIH 3T3), maintained in DMEM (Lonza) were obtained (Spector D J, Yetming K. Virology. 2010; 407(2):171-7; Spector D J. Virology. 2015, 476:345-54). All media was supplemented with 10% fetal bovine serum, 100 U/ml penicillin and 100 µg/ml streptomycin, and 2 mM GlutaMAX (Gibco). Cells were maintained at 37° C. with 5% CO2. […]

[2] = system: HCMV; assay: HCMV single-step growth curve / virus titer analysis (MOI=3); format: cell-based, Human cytomegalovirus (HCMV); settings: Human betaherpesvirus 5; for EC50: MOI=3, harvested at 96 hpi (FIG. 9)
Procedure: Infections were done at an MOI of 0.05 for multi-step growth curves and MOI 3 for single-step growth curves. Infections were done on NHDFs unless otherwise noted. Virus was incubated with cells for 2 hours before addition of fresh media. For growth curve analyses, virus was harvested at the indicated time-points for each experiment by scraping the cells into the medium, sonicating 10 times with 1 second pulses, vortexing for 15 seconds, and centrifuging at 13,000 rpm for 10 min. Supernatants were collected, aliquoted and flash-frozen in liquid nitrogen before storage at −80° C.
(§1) For MCMV growth curve analysis, samples were titrated on NIH 3T3 cells and titers were calculated using the 50% tissue culture infective dose method. Both HCMV virus stocks and samples for growth curves were titrated by serial dilutions on MRC5 cells and quantified by the immunological detection of immediate-early proteins as previously described (Britt W J. Human cytomegalovirus: propagation, quantification, and storage. Curr Protoc Microbiol. 2010; Chapter 14: Unit 14E.3). The numbers of stained nuclei were acquired on a Nikon Eclipse Ti Inverted microscope and fluorescent nuclei were quantified using the NIS Elements Software. Images of viral foci from infection of ARPE19 cells were also acquired on Eclipse Ti Inverted microscope. The number and size of foci were quantified using NIS Elements software.
^1H NMR spectra were recorded on a 500 MHz Bruker spectrometer (Billerica, Mass.) using tetramethylsilane (TMS) as the internal reference. The following abbreviations were used to designate chemical shift multiplicities: s=singlet, d=doublet, dd=double doublet, t=triplet, dt=doublet of triplet, m=multiplet. Mass Spec analysis was performed on 4000 Q trap hybrid triple quadrupole/linear ion trap instrument (Applied Biosystems/MDS Sciex) at the proteomic facility at Penn State Hershey Cancer Institute, Hershey, Pa. Thin-layer chromatography (TLC) was on aluminum-supported, precoated silica gel plates (EM Industries, Gibbstown, N.J.). 5-(2-methyl-3-thiazol-4-yl)-2-thiophencarboxaldehyde was purchased from MAYBRIDGE-Thermo Fisher (Cornwall, UK). All other starting materials were obtained from Aldrich Chemical Co. (Milwaukee, Wis.) and used without further purification. Retro94 was added to cells at 2 hpi at a concentration of 10 μM, unless otherwise indicated.

[3] = system: EBV; assay: EC50 against other herpesviruses: EBV; format: cell-based; settings: below the lowest concentration tested (FIG. 10B)
Text: (§2) FIGS. 10A-10B show data to provide support for Retro94 and derivatives being effective against other herpesviruses. […] Samples were harvested at 24 hpi. Representative data shown are from independent replicates. FIG. 10B provides a table showing low nanomolar EC50 values of Retro94F against other herpesviruses.

[4] = system: MCMV; assay: Viral titers of MCMV-infected fibroblasts; format: cell-based, mouse; settings: 6 dpi (FIG. 12A)
Procedure: FIG. 7A is a graph showing viral titers at 15 dpi of fibroblasts infected with various strains of HCMV (MOI=0.05) and treated with DMSO or Retro94 at 2 hpi. Media was changed and fresh Retro94 was added at 6 dpi. Bright field images representing CPE of above infections shown at right. FIG. 7B show HCMV-infected ARPE-19 cells (TB40, MOI=3) at 21 dpi treated with DMSO or Retro94 ([…]). Infected cells detected by monitoring mCherry (red) expressed by TB40 virus. Scale bars: 1 mm. The table below images show number of foci detected, average area and standard error of the mean. P<0.00001. […]
as §1, with “Images of viral foci from infection of ARPE19 cells were also acquired on Eclipse Ti Inverted microscope.” left out

[5] = Tolerability in mice (adverse effects, creatinine, BUN); format: in vivo, C57BL/6 mice
Procedure: FIGS. 13A-13B provides data to support Retro94F showing no overt toxicity in mice. FIGS. 13A and 13B, Mice were treated with […] Retro-2.1 or vehicle control one hour prior to infection with 2×10^4 PFU MuPyV, then daily until day 4 p.i.
While we obtained good results in tissue culture, developing animal models to test the inhibitors was undertaken to allow for studies to test both the properties of the compounds in a host as well as their efficacy against viruses. […] Thus, at least two mouse infection models in which to show efficacy of the compounds against infection in a host organism is provided. Administration of Retro94F to mice to monitor for potential adverse effects of the compound was undertaken. These initial studies have shown that Retro94F is well tolerated by the mice. For these studies, C57BL/6 mice were injected intraperitoneally once daily with 250 μg of Retro94F or vehicle control in 250 μl of 0.9% saline. […] Thus, the inhibitors appear to be well tolerated by mice.

[6] = system: range of viruses from diverse families; assay: EC50 against non-herpesviruses; format: cell-based; settings: FIG. 11A
Text: (§3) FIG. 11A provides a table showing EC50 values of Retro94F against a range of viruses from diverse families. […] Samples were harvested at 24, 48 and 72 hpi. Data shown is from one independent replicates.

[7] = system: mouse polyomavirus; assay: Immune response of mice challenged with mouse polyomavirus; format: in vivo, B6 mice
Text: (A-E) B6 mice were infected via hind footpads with 2×10^5 PFU of MuPyV. FIGS. 14A and 14B show the results of the percent of immune cell populations in the spleen (FIG. 14A) and kidney (FIG. 14B) analyzed at day 8 post infection between vehicle- or Retro94F-treated mice. […] FIGS. 14D-14E show the phenotype of MuPyV-specific CD8 T cells, analyzed at day 8 or day 30 post infection. KLRG1hi CD127lo (FIG. 14D) cells are short-lived effector cells, while KLRG1lo CD127hi (FIG. 14E) cells are memory-precursor effector cells.
Thus, the inhibitors appear to be well tolerated by mice.

[8] = system: KSHV; assay: EC50 against other herpesviruses: KSHV; format: cell-based; settings: below the lowest concentration tested (FIG. 10B)
Text: as §2

[9] = system: Zika virus; assay: Growth curve analysis of Zika virus; format: cell-based; settings: MOI=5; 24, 48 and 72 hpi
Text: as §3

Compound: C[C@H]1CCC/C=C/[C@@H]2C[C@H](O)C[C@H]2[C@H](O)/C=C/C(=O)O1 [Brefeldin A, reference compound]
- cells remaining in the monolayer [1]: very few cells in the monolayer remained

- EC50 [2]: ~20 nM
Compound: Cc1nc(-c2ccc(C3N(C)c4ccc([N+](=O)[O-])cc4C(=O)N3c3ccccc3)s2)cs1 (centres unmarked) [DABL-NM, 6-Nitro-1-methyl-2-(5-(2-methylthiazol-4-yl)thiophen-2-yl)-3-phenyl-2,3-dihydroquinazolin-4(1H)-one]

Compound: Cc1nc(-c2ccc(C3N(C)c4ccc(F)cc4C(=O)N3c3ccccc3)s2)cs1 (centres unmarked) [Retro94F, 6-Fluoro-1-methyl-2-(5-(2-methylthiazol-4-yl)thiophen-2-yl)-3-phenyl-2,3-dihydroquinazolin-4(1H)-one]
- EC50 [2]: ~20 nM
- IC50 ([2]; added at 2 hpi, MOI 3, 96 hpi, read-out: IC50 (HCMV titers)): ~15 nM
- EC50 (EBV) [3]: low naonmolar range
- inhibition of replication of the mouse equivalent of CMV in culture [4]: 99%
- adverse effects ([5]; 250 μg intraperitoneally once daily for 14 straight days): no apparent adverse effects
- kidney function (creatinine and BUN levels) ([5]; treated mice, day 4 and day 30 p.i.): did not adversely affect kidney function
- EC50 against other viruses [6]: high nanomolar to low micromolar range
- signs of distress ([7]; challenge with mouse polyomavirus after treatment): no signs of distress
- CD8 T cell response to the virus ([7]; day 8 or day 30 post infection): did not alter
- levels of immune cells (spleen, kidney) ([7]; day 8 post infection): equivalent levels of immune cells as control treatment
- EC50 (KSHV) [8]: low naonmolar range
- inhibition of Zika virus infection [9]: approximately 90%
